In patent US11046714B2, “2,2-difluorodioxolo A2A receptor antagonists” (Merck Sharp & Dohme Corp., priority 2013, dated 2021):

Target: human A2A receptor (Homo sapiens (Human), UniProt P29274)
Test: competition binding assay using Scintillation Proximity technology
Details: membranes from CHO-K1 cells expressing the human A2a receptor; 2.0 nM tritiated compound; Cheng-Prusoff
In short: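 Membranes (1.0 μg) from CHO-K1 cells expressing human A2A were treated with adenosine deaminase, then incubated 1 h at room temperature with compound (3000–0.15 nM) and 2.0 nM tritiated SCH-type ligand on WGA SPA beads in PBS plus 10 mM MgCl2. Nonspecific binding was defined with 1 μM CGS 15943. Ki was derived from EC50 via Cheng-Prusoff.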

Sequence of human A2A receptor (P29274 whole entry): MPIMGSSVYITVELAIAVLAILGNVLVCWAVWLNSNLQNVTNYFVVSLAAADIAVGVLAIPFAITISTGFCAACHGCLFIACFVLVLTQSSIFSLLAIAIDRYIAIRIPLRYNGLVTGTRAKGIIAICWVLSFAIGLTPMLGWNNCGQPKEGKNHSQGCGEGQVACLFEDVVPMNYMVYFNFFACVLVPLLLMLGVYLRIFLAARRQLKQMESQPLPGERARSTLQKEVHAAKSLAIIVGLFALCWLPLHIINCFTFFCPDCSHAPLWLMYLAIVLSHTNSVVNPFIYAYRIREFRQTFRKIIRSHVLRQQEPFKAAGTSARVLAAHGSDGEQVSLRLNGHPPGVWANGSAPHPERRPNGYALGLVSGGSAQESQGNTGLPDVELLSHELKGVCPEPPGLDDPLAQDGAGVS

SMILES	Ki [nM]
Nc1nc2c3c(ccc2c2nc(CCN4CCC(F)CC4)nn12)OC(F)(F)O3 [Example 27, 2,2-difluoro-8-[2-(4-fluoropiperidin-1-yl)ethyl] [1,3]dioxolo[4,5-h][1,2,4] triazolo[1,5-c]quinazolin-5-amine]	7.8
CC1(F)CCN(CCc2nc3c4ccc5c(c4nc(N)n3n2)OC(F)(F)O5)CC1 [Example 28, 2,2-difluoro-8-[2-(4-fluoro-4-methylpiperidin-1-yl)ethyl] [1,3]dioxolo[4,5-h][1,2,4] triazolo[1,5-c]quinazolin-5-amine]	11
Nc1nc2c3c(ccc2c2nc(CCN4CCCC(F)(F)C4)nn12)OC(F)(F)O3 [Example 29, 8-[2-(3,3-difluoropiperidin-1-yl)ethyl]-2,2-difluoro[1,3] dioxolo[4,5-h][1,2,4]triazolo [1,5-c]quinazolin-5-amine]	1.6
Nc1nc2c3c(ccc2c2nc(CCN4CCC(F)(F)CC4)nn12)OC(F)(F)O3 [Example 30, 8-[2-(4,4-difluoropiperidin-1-yl)ethyl]-2,2-difluoro[1,3] dioxolo[4,5-h][1,2,4]triazolo [1,5-c]quinazolin-5-amine]	2.6
C[C@@H]1CC(F)(F)CCN1CCc1nc2c3ccc4c(c3nc(N)n2n1)OC(F)(F)O4 [Example 31, 8-{2-[(2R)-4,4-difluoro-2-methylpiperidin-1-yl]ethyl}-2,2-difluoro[1,3]dioxolo[4,5-h][1,2,4]triazolo[1,5-c]quinazolin-5-amine]	2.2
Nc1nc2c3c(ccc2c2nc(CCN4CC5COCC(C4)C5(F)F)nn12)OC(F)(F)O3 [Example 32, 8-[2-(9,9-difluoro-3-oxa-7-azabicyclo[3.3.1]non-7-yl)ethyl]-2,2-difluoro[1,3]dioxolo [4,5-h][1,2,4]triazolo[1,5-c]quinazolin-5-amine]	40
CC1(C)CN(CCc2nc3c4ccc5c(c4nc(N)n3n2)OC(F)(F)O5)C1 [Example 33, 8-[2-(3,3-dimethylazetidin-1-yl)ethyl]-2,2-difluoro[1,3]dioxolo [4,5-h][1,2,4]triazolo[1,5-c]quinazolin-5-amine]	29
C[C@@H]1CC[C@@H](C)N1CCc1nc2c3ccc4c(c3nc(N)n2n1)OC(F)(F)O4 [Example 34, 8-{2-[(2R,5R)-2,5-dimethylpyrrolidin-1-yl]ethyl}-2,2-difluoro[1,3]dioxolo[4,5-h][1,2,4]triazolo[1,5-c]quinazolin-5-amine]	11
Nc1nc2c3c(ccc2c2nc(CCN4CC5CC5C4)nn12)OC(F)(F)O3 (stereo not shown) [Example 35, 8-[2-(3-azabicyclo[3.1.0]hex-3-yl)ethyl]-2,2-difluoro[1,3] dioxolo[4,5-h][1,2,4]triazolo [1,5-c]quinazolin-5-amine]	3
Nc1nc2c3c(ccc2c2nc(CCN4CC[C@@H](c5ccccc5)C4)nn12)OC(F)(F)O3 [Example 36, 2,2-difluoro-8-{2-[(3S)-3-phenylpyrrolidin-1-yl]ethyl}[1,3]dioxolo[4,5-h][1,2,4]triazolo[1,5-c]quinazolin-5-amine]	39
Nc1nc2c3c(ccc2c2nc(CCN4CC[C@H](c5ccccc5)C4)nn12)OC(F)(F)O3 [Example 37, 2,2-difluoro-8-{2-[(3R)-3-phenylpyrrolidin-1-yl]ethyl}[1,3]dioxolo[4,5-h][1,2,4]triazolo[1,5-c]quinazolin-5-amine]	20
CC1CCN(CCc2nc3c4ccc5c(c4nc(N)n3n2)OC(F)(F)O5)CC1 [Example 38, 2,2-difluoro-8-[2-(4-methylpiperidin-1-yl)ethyl][1,3]dioxolo[4,5-h][1,2,4]triazolo[1,5-c]quinazolin-5-amine]	27
CC1(C)CCCN(CCc2nc3c4ccc5c(c4nc(N)n3n2)OC(F)(F)O5)C1 [Example 39, 8-[2-(3,3-dimethylpiperidin-1-yl)ethyl]-2,2-difluoro[1,3] dioxolo[4,5-h][1,2,4]triazolo [1,5-c]quinazolin-5-amine]	67
